The record followed here is BindingDB's records for doi:10.1021/jm000085e (Synaptic Pharmaceutical, 2000).

What is called Ki is the dissociation constant of the complex between target and ligand, obtained from inhibition or displacement. A higher Ki goes with weaker binding.

SMILES strings stand for the structures.

The assay is described as follows: Binding affinity towards Alpha1D dog adrenergic receptors, using [125I]-HEAT as radioligand.

Compound `C[C@@H]1OC(=O)N(C(=O)NCCCN2CCC(c3ccc(F)cc3)CC2)[C@H]1c1ccc(F)c(F)c1` [4-(3,4-Difluoro-phenyl)-5-methyl-2-oxo-oxazolidine-3-carboxylic acid {3-[4-(4-fluoro-phenyl)-piperidin-1-yl]-propyl}-amide] had a Ki of 133 nM.
